From PubChem BioAssay (NCI)
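Cultured in 96-well plates, cells were exposed to test compound for 48 hours across five concentrations. TGI is the concentration that stops growth completely.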

test system: K-562 leukemia; experiment: inhibition of tumour cell growth, NCI panel, 48 h

| SMILES | TGI [µM] |
| --- | --- |
| CC(C)OC(=O)C1=C2c3ncccc3C(=O)N2[C@@H](Cl)[C@H](Cl)[C@H]1Cl | > 100 |
| O=[N+]([O-])c1ccc2c(c1)Sc1ccccc1N2 | > 100 |
| CC(C)(C)OC(=O)NCCc1ccc(N)cc1 | > 100 |

test system: DU-145 prostate; experiment: inhibition of tumour cell growth, NCI panel, 48 h

| SMILES | TGI [µM] |
| --- | --- |
| CCOC(=O)C1=C(Cl)c2cccnc2C1=O | 55.6 |
| NC(=S)N/N=C1\CCCCc2ccccc21 | > 10 |
| CC(C)OC(=O)C1=C2c3ncccc3C(=O)N2[C@@H](Cl)[C@H](Cl)[C@H]1Cl | > 100 |
| O=[N+]([O-])c1ccc2c(c1)Sc1ccccc1N2 | > 100 |
| CC(C)(C)OC(=O)NCCc1ccc(N)cc1 | > 100 |

test system: NCI-H226 lung; experiment: inhibition of tumour cell growth, NCI panel, 48 h

| SMILES | TGI [µM] |
| --- | --- |
| CCOC(=O)C1=C(Cl)c2cccnc2C1=O | > 100 |
| NC(=S)N/N=C1\CCCCc2ccccc21 | > 10 |
| CC(C)OC(=O)C1=C2c3ncccc3C(=O)N2[C@@H](Cl)[C@H](Cl)[C@H]1Cl | > 100 |
| O=[N+]([O-])c1ccc2c(c1)Sc1ccccc1N2 | > 100 |

test system: PC-3 prostate; experiment: inhibition of tumour cell growth, NCI panel, 48 h

| SMILES | TGI [µM] |
| --- | --- |
| CCOC(=O)C1=C(Cl)c2cccnc2C1=O | > 100 |
| NC(=S)N/N=C1\CCCCc2ccccc21 | > 10 |
| CC(C)OC(=O)C1=C2c3ncccc3C(=O)N2[C@@H](Cl)[C@H](Cl)[C@H]1Cl | > 100 |
| O=[N+]([O-])c1ccc2c(c1)Sc1ccccc1N2 | > 100 |
| CC(C)(C)OC(=O)NCCc1ccc(N)cc1 | > 100 |

test system: HOP-92 NSCLC; experiment: inhibition of tumour cell growth, NCI panel, 48 h

| SMILES | TGI [µM] |
| --- | --- |
| CCOC(=O)C1=C(Cl)c2cccnc2C1=O | > 100 |
| CC(C)OC(=O)C1=C2c3ncccc3C(=O)N2[C@@H](Cl)[C@H](Cl)[C@H]1Cl | > 100 |
| O=[N+]([O-])c1ccc2c(c1)Sc1ccccc1N2 | > 100 |

test system: TK-10 renal; experiment: inhibition of tumour cell growth, NCI panel, 48 h

| SMILES | TGI [µM] |
| --- | --- |
| CCOC(=O)C1=C(Cl)c2cccnc2C1=O | > 100 |
| NC(=S)N/N=C1\CCCCc2ccccc21 | > 10 |
| CC(C)OC(=O)C1=C2c3ncccc3C(=O)N2[C@@H](Cl)[C@H](Cl)[C@H]1Cl | > 100 |
| O=[N+]([O-])c1ccc2c(c1)Sc1ccccc1N2 | > 100 |
| CC(C)(C)OC(=O)NCCc1ccc(N)cc1 | > 100 |

test system: HT29 colon; experiment: inhibition of tumour cell growth, NCI panel, 48 h

| SMILES | TGI [µM] |
| --- | --- |
| CCOC(=O)C1=C(Cl)c2cccnc2C1=O | > 100 |
| NC(=S)N/N=C1\CCCCc2ccccc21 | > 10 |
| CC(C)OC(=O)C1=C2c3ncccc3C(=O)N2[C@@H](Cl)[C@H](Cl)[C@H]1Cl | > 100 |
| O=[N+]([O-])c1ccc2c(c1)Sc1ccccc1N2 | > 100 |
| CC(C)(C)OC(=O)NCCc1ccc(N)cc1 | > 100 |

test system: RXF 393 renal; experiment: inhibition of tumour cell growth, NCI panel, 48 h

| SMILES | TGI [µM] |
| --- | --- |
| CCOC(=O)C1=C(Cl)c2cccnc2C1=O | > 100 |
| NC(=S)N/N=C1\CCCCc2ccccc21 | > 10 |
| CC(C)OC(=O)C1=C2c3ncccc3C(=O)N2[C@@H](Cl)[C@H](Cl)[C@H]1Cl | > 100 |
| O=[N+]([O-])c1ccc2c(c1)Sc1ccccc1N2 | > 100 |

test system: HL-60(TB) leukemia; experiment: inhibition of tumour cell growth, NCI panel, 48 h

| SMILES | TGI [µM] |
| --- | --- |
| CCOC(=O)C1=C(Cl)c2cccnc2C1=O | > 100 |
| NC(=S)N/N=C1\CCCCc2ccccc21 | > 10 |
| CC(C)OC(=O)C1=C2c3ncccc3C(=O)N2[C@@H](Cl)[C@H](Cl)[C@H]1Cl | > 100 |
| O=[N+]([O-])c1ccc2c(c1)Sc1ccccc1N2 | > 100 |
| CC(C)(C)OC(=O)NCCc1ccc(N)cc1 | > 100 |

test system: HOP-62 NSCLC; experiment: inhibition of tumour cell growth, NCI panel, 48 h

| SMILES | TGI [µM] |
| --- | --- |
| CCOC(=O)C1=C(Cl)c2cccnc2C1=O | > 100 |
| NC(=S)N/N=C1\CCCCc2ccccc21 | > 10 |
| CC(C)OC(=O)C1=C2c3ncccc3C(=O)N2[C@@H](Cl)[C@H](Cl)[C@H]1Cl | > 100 |
| O=[N+]([O-])c1ccc2c(c1)Sc1ccccc1N2 | > 100 |
| CC(C)(C)OC(=O)NCCc1ccc(N)cc1 | > 100 |

test system: RPMI-8226 leukemia; experiment: inhibition of tumour cell growth, NCI panel, 48 h

| SMILES | TGI [µM] |
| --- | --- |
| CCOC(=O)C1=C(Cl)c2cccnc2C1=O | > 100 |
| NC(=S)N/N=C1\CCCCc2ccccc21 | > 10 |
| CC(C)OC(=O)C1=C2c3ncccc3C(=O)N2[C@@H](Cl)[C@H](Cl)[C@H]1Cl | > 100 |
| O=[N+]([O-])c1ccc2c(c1)Sc1ccccc1N2 | > 100 |
| CC(C)(C)OC(=O)NCCc1ccc(N)cc1 | > 100 |

test system: COLO 205 colon; experiment: inhibition of tumour cell growth, NCI panel, 48 h

| SMILES | TGI [µM] |
| --- | --- |
| CCOC(=O)C1=C(Cl)c2cccnc2C1=O | > 100 |
| NC(=S)N/N=C1\CCCCc2ccccc21 | > 10 |
| CC(C)OC(=O)C1=C2c3ncccc3C(=O)N2[C@@H](Cl)[C@H](Cl)[C@H]1Cl | > 100 |
| O=[N+]([O-])c1ccc2c(c1)Sc1ccccc1N2 | > 100 |
| CC(C)(C)OC(=O)NCCc1ccc(N)cc1 | > 100 |

test system: SK-MEL-28 melanoma; experiment: inhibition of tumour cell growth, NCI panel, 48 h

| SMILES | TGI [µM] |
| --- | --- |
| CCOC(=O)C1=C(Cl)c2cccnc2C1=O | > 100 |
| CC(C)OC(=O)C1=C2c3ncccc3C(=O)N2[C@@H](Cl)[C@H](Cl)[C@H]1Cl | > 100 |
| O=[N+]([O-])c1ccc2c(c1)Sc1ccccc1N2 | > 100 |
| CC(C)(C)OC(=O)NCCc1ccc(N)cc1 | > 100 |

test system: A549 NSCLC; experiment: inhibition of tumour cell growth, NCI panel, 48 h

| SMILES | TGI [µM] |
| --- | --- |
| CCOC(=O)C1=C(Cl)c2cccnc2C1=O | > 100 |
| NC(=S)N/N=C1\CCCCc2ccccc21 | > 10 |
| CC(C)OC(=O)C1=C2c3ncccc3C(=O)N2[C@@H](Cl)[C@H](Cl)[C@H]1Cl | > 100 |
| O=[N+]([O-])c1ccc2c(c1)Sc1ccccc1N2 | > 100 |
| CC(C)(C)OC(=O)NCCc1ccc(N)cc1 | > 100 |

test system: UACC-257 melanoma; experiment: inhibition of tumour cell growth, NCI panel, 48 h

| SMILES | TGI [µM] |
| --- | --- |
| CCOC(=O)C1=C(Cl)c2cccnc2C1=O | > 100 |
